Experimental data reported in US10112941B2, “Tricyclic compounds as anticancer agents” (BRISTOL-MYERS SQUIBB COMPANY, priority 2013, dated 2018).

target: BRD4 (Homo sapiens, UniProt O60885); assay: Time Resolved Fluorescence Resonance Energy Transfer (TR-FRET) binding assay, BRD4; details: one of the FRET assays described; read-out: FRET BRD4 IC50

SMILES	IC50
[2H]C([2H])([2H])Oc1nnn(C)c1-c1cnc2c3ccc(NC(=O)OC(C)C)cc3n([C@H](c3ccccc3)C3CCOCC3)c2c1 [Example 392, Propan-2-yl N-{3-[4-(^2H3)methoxy-1-methyl-1H-1,2,3-triazol-5-yl]-5-[(S)-oxan-4-yl(phenyl)methyl]-5H-pyrido[3,2-b]indol-7-yl}carbamate]	< 5 nM
COc1ccc(C(C2CCOCC2)n2c3cc(C(C)(C)O)ccc3c3ncc(-c4c(C)nnn4C)cc32)c(F)c1 (single isomer, unassigned) [Example 119, 2-[3-(Dimethyl-1H-1,2,3-triazol-5-yl)-5-[(2-fluoro-4-methoxyphenyl)(oxan-4-yl)methyl]-5H-pyrido[3,2-b]indol-7-yl]propan-2-ol]	< 5 nM
Cc1nnn(C)c1-c1cnc2c3ccc(C(C)(C)N)cc3n(C(c3ccccc3)C3CCOCC3)c2c1 (single isomer, unassigned) [Example 166, 2-[3-(Dimethyl-1H-1,2,3-triazol-5-yl)-5-[oxan-4-yl(phenyl)methyl]-5H-pyrido[3,2-b]indol-7-yl]propan-2-amine]	< 5 nM
Cc1noc(C(C2CCOCC2)n2c3cc(C(C)(C)O)ccc3c3ncc(-c4c(C)nnn4C)cc32)n1 (single isomer, unassigned) [Example 300]	< 25 nM
CCc1nnn(C)c1-c1cnc2c3ccc(C(C)(C)O)cc3n([C@H](c3ccccc3)C3CCOCC3)c2c1 [Example 388, 2-[3-(4-Ethyl-1-methyl-1H-1,2,3-triazol-5-yl)-5-[(S)-oxan-4-yl(phenyl)methyl]-5H-pyrido[3,2-b]indol-7-yl]propan-2-ol]	< 5 nM
Cc1noc(C)c1-c1cnc2c3ccc(C(C)(C)O)cc3n([C@H](CCC(F)(F)F)c3ccccc3)c2c1 [Example 10]	< 25 nM
Cc1noc(C)c1-c1cnc2c3ccc(C(C)(C)O)cc3n(C(c3ccc(F)cc3F)C3CCOCC3)c2c1 (single isomer, unassigned) [Example 126, 2-{5-[(2,4-Difluorophenyl)(oxan-4-yl)methyl]-3-(dimethyl-1,2-oxazol-4-yl)-5H-pyrido[3,2-b]indol-7-yl}propan-2-ol]	< 25 nM
Cc1nnn(C)c1-c1cnc2c3cc(F)c(C(C)(C)O)cc3n(C(c3ccc(F)cc3)C3CCOCC3)c2c1 (single isomer, unassigned) [Example 78, 2-[3-(Dimethyl-1H-1,2,3-triazol-5-yl)-8-fluoro-5-[(4-fluorophenyl)(oxan-4-yl)methyl]-5H-pyrido[3,2-b]indol-7-yl]propan-2-ol]	< 5 nM
Cc1nnn(C)c1-c1cnc2c3ccc(C(C)(C)O)cc3n(Cc3ccccc3)c2c1 [Example 69, 2-[5-Benzyl-3-(dimethyl-1H-1,2,3-triazol-5-yl)-5H-pyrido[3,2-b]indol-7-yl]propan-2-ol]	< 5 nM
COc1ccc(C(C2CCOCC2)n2c3cc(C(C)(C)O)ccc3c3ncc(-c4c(C)nnn4C)cc32)c(F)c1F (single isomer, unassigned) [Example 122, 2-{5-[(2,3-Difluoro-4-methoxyphenyl)(oxan-4-yl)methyl]-3-(dimethyl-1H-1,2,3-triazol-5-yl)-5H-pyrido[3,2-b]indol-7-yl}propan-2-ol]	< 5 nM
Cc1noc(C)c1-c1cnc2c3ccc(S(C)(=O)=O)cc3n([C@H](c3ccccc3)C3CCOCC3)c2c1 [Example 171, 4-{7-Methanesulfonyl-5-[(S)-oxan-4-yl(phenyl)methyl]-5H-pyrido[3,2-b]indol-3-yl}-3,5-dimethyl-1,2-oxazole]	< 5 nM
[2H]C([2H])([2H])c1nnn(C)c1-c1cnc2c3c(F)cc(S(C)(=O)=O)cc3n([C@H](c3ccccc3F)C3CCOCC3)c2c1 [Example 196, 5-{9-Fluoro-5-[(S)-(2-fluorophenyl)(oxan-4-yl)methyl]-7-methanesulfonyl-5H-pyrido[3,2-b]indol-3-yl}-4-(^2H3)methyl-1-methyl-1H-1,2,3-triazole]	< 25 nM
[2H]C([2H])([2H])c1nnn(C)c1-c1cnc2c3c(F)ccc(S(C)(=O)=O)c3n([C@H](c3ccc(F)cc3)C3CCOCC3)c2c1 [Example 233, 5-{9-Fluoro-5-[(S)-(4-fluorophenyl)(oxan-4-yl)methyl]-6-methanesulfonyl-5H-pyrido[3,2-b]indol-3-yl}-4-(^2H3)methyl-1-methyl-1H-1,2,3-triazole]	< 5 nM
CCOC(=O)Nc1ccc2c3ncc(-c4c(C)nnn4C)cc3n([C@H](c3ccccc3)C3CCOCC3)c2c1 [Example 366, Ethyl N-[3-(dimethyl-1H-1,2,3-triazol-5-yl)-5-[(S)-oxan-4-yl(phenyl)methyl]-5H-pyrido[3,2-b]indol-7-yl]carbamate]	< 5 nM
Cc1nnn(C)c1-c1cnc2c3ccc(C(C)(O)C(F)(F)F)c(F)c3n([C@H](c3ccccc3)C3CCOCC3)c2c1 (single isomer, unassigned) [Example 441]	< 5 nM
Cc1noc(C)c1-c1cnc2c3ccc(C(C)(C)O)cc3n(C(c3cccc(F)c3F)C3CCOCC3)c2c1 (single isomer, unassigned) [Example 146, 2-{5-[(2,3-Difluorophenyl)(oxan-4-yl)methyl]-3-(dimethyl-1,2-oxazol-4-yl)-5H-pyrido[3,2-b]indol-7-yl}propan-2-ol]	< 5 nM

SMILES	IC50
[2H]C([2H])([2H])c1nnn(C)c1-c1cnc2c3c(F)cc(S(C)(=O)=O)cc3n([C@H](c3ccccc3)C3CCOCC3)c2c1 [Example 195, 5-{9-Fluoro-7-methanesulfonyl-5-[(S)-oxan-4-yl(phenyl)methyl]-5H-pyrido[3,2-b]indol-3-yl}-4-(^2H3)methyl-1-methyl-1H-1,2,3-triazole]	< 5 nM
COc1ccc(S(C)(=O)=O)c2c1c1ncc(-c3c(C)noc3C)cc1n2[C@H](c1ccccc1F)C1CCOCC1 [Example 186, 4-{5-[(S)-(2-Fluorophenyl)(oxan-4-yl)methyl]-6-methanesulfonyl-9-methoxy-5H-pyrido[3,2-b]indol-3-yl}-3,5-dimethyl-1,2-oxazole]	< 5 nM
Cc1nnc(C)n1-c1cnc2c3ccc(C(C)(C)O)cc3n(C(c3ccccc3)C3CCOCC3)c2c1 (stereo in doubt) [Example 357, 2-[3-(Dimethyl-4H-1,2,4-triazol-4-yl)-5-[(R)-oxan-4-yl(phenyl)methyl]-5H-pyrido[3,2-b]indol-7-yl]propan-2-ol]	< 5 nM
COc1cc2c3ncc(-c4c(C)nnn4C)cc3n([C@H](c3ccc(F)cc3)C3CCOCC3)c2cc1C(C)(C)O [Example 353, 2-[3-(Dimethyl-1H-1,2,3-triazol-5-yl)-5-[(S)-(4-fluorophenyl)(oxan-4-yl)methyl]-8-methoxy-5H-pyrido[3,2-b]indol-7-yl]propan-2-ol]	< 5 nM
Cc1noc(C)c1-c1cnc2c3ccc(C(C)(C)O)cc3n([C@@H](c3ccccn3)C3CCOCC3)c2c1 [Example 22]	< 5 nM
Cc1nnn(C)c1-c1cnc2c3cc(CC(C)(C)O)ccc3n([C@H](c3ccccc3)C3CCOCC3)c2c1 [Example 255, 1-[3-(Dimethyl-1H-1,2,3-triazol-5-yl)-5-[(S)-oxan-4-yl(phenyl)methyl]-5H-pyrido[3,2-b]indol-8-yl]-2-methylpropan-2-ol]	< 5 nM
[2H]C([2H])([2H])c1nnn(C)c1-c1cnc2c3ccc(C(C)(C)O)cc3n(C(c3ccncc3F)C3CCOCC3)c2c1 (single isomer, unassigned) [Example 310]	< 5 nM
COc1cc(F)c(C(C2CCOCC2)n2c3cc(C(C)(C)O)ccc3c3ncc(-c4c(C)nnn4C)cc32)cc1F (single isomer, unassigned) [Example 124, 2-{5-[(2,5-Difluoro-4-methoxyphenyl)(oxan-4-yl)methyl]-3-(dimethyl-1H-1,2,3-triazol-5-yl)-5H-pyrido[3,2-b]indol-7-yl}propan-2-ol]	< 5 nM
[2H]C([2H])([2H])c1nnn(C)c1-c1cnc2c3c(OC)cc(S(C)(=O)=O)cc3n([C@H](c3ccccc3F)C3CCOCC3)c2c1 [Example 198, 5-{5-[(S)-(2-Fluorophenyl)(oxan-4-yl)methyl]-7-methanesulfonyl-9-methoxy-5H-pyrido[3,2-b]indol-3-yl}-4-(^2H3)methyl-1-methyl-1H-1,2,3-triazole]	< 5 nM
[2H]C([2H])([2H])c1onc(C)c1-c1cnc2c3c(OC)ccc(S(=O)(=O)C([2H])([2H])[2H])c3n([C@H](c3ccccc3)C3CCOCC3)c2c1 [Example 193, 4-[6-(^2H3)Methanesulfonyl-9-methoxy-5-[(S)-oxan-4-yl(phenyl)methyl]-5H-pyrido[3,2-b]indol-3-yl]-5-(^2H3)methyl-3-methyl-1,2-oxazole]	< 5 nM
Cc1noc(C)c1-c1cnc2c3ccc(C(C)(C)O)cc3n([C@H](c3ccc(F)cc3)C3CCC3)c2c1 [Example 15]	< 5 nM
Cc1noc(C)c1-c1cnc2c3ccc(C(C)(C)O)cc3n([C@H](c3ccccc3)C3CCC3)c2c1 [Example 13]	< 5 nM
Cc1cc(C(C2CCOCC2)n2c3cc(C(C)(C)O)ccc3c3ncc(-c4c(C)nnn4C)cc32)n(C)n1 (single isomer, unassigned) [Example 341, 2-[3-(Dimethyl-1H-1,2,3-triazol-5-yl)-5-[(1,3-dimethyl-1H-pyrazol-5-yl)(oxan-4-yl)methyl]-5H-pyrido[3,2-b]indol-7-yl]propan-2-ol]	< 5 nM
Cc1nnn(C)c1-c1cnc2c3ccc(C(C)(O)CO)cc3n([C@H](c3ccccc3)C3CCOCC3)c2c1 (stereo partly drawn) [Example 424, 2-[3-(Dimethyl-1H-1,2,3-triazol-5-yl)-5-[(S)-oxan-4-yl(phenyl)methyl]-5H-pyrido[3,2-b]indol-7-yl]propane-1,2-diol]	< 5 nM
Cc1noc(C)c1-c1cnc2c3ccc(C(C)(C)O)cc3n(C(c3cccc(F)c3F)C3CCOCC3)c2c1 (single isomer, unassigned) [Example 145, 2-{5-[(2,3-Difluorophenyl)(oxan-4-yl)methyl]-3-(dimethyl-1,2-oxazol-4-yl)-5H-pyrido[3,2-b]indol-7-yl}propan-2-ol]	< 5 nM
[2H]C([2H])([2H])n1nnc(OC)c1-c1cnc2c3ccc(C(C)(C)O)cc3n([C@H](c3ccccc3)C3CCOCC3)c2c1 [Example 381, 2-{3-[4-Methoxy-1-(^2H3)methyl-1H-1,2,3-triazol-5-yl]-5-[(S)-oxan-4-yl(phenyl)methyl]-5H-pyrido[3,2-b]indol-7-yl}propan-2-ol]	< 5 nM
